# Laboratory results as given in patent publication US11434220B2, “Use of physiological cooling active ingredients, and compositions comprising such active ingredients” (BASF SE, priority 2017, dated 2022).
# pEC50: −log10 of the molar value.
# How the values were obtained:
# human TRPM8 receptor = molecular target: T1, human TRPM8 receptor (Homo sapiens, UniProt Q7Z2W7); assay: Assay for TRPM8 modulators: Ca2+ fluorescence (Fluo-4) in HEK293-TRPM8 test cells; assay type: cell-based; details: HEK293 cells stably transfected with human TRPM8, agonism, triplicates, 0.1-200 μM; read-out: Activity In vitro assay (EC50)
# T1 construct: expressed in transfected cells
# Excerpt: The test cell system produced, with human TRPM8 DNA, was a stably transfected HEK293 cell line. Preference is given here to HEK293 which, via the plasmid introduced, offers the option of induction of TRPM8 expression by means of tetracycline.
# The agonism or antagonism of the receptor can be quantified by means of a Ca^2+-sensitive dye (e.g. FURA, Fluo-4 etc.). Agonists on their own result in an increase in the Ca^2+ signal; antagonists in the presence of menthol, for example, result in a reduction in the Ca^2+ signal (in each case detected by means of the Fluo-4 dye which is caused to have different fluorescence properties by Ca^2+).
# First of all, in a manner known per se, a fresh culture of transformed HEK cells is produced in cell culture bottles. The HEK293-TRPM8 test cells are detached from the cell culture bottles by means of trypsin and 40 000 cells/well are sown with 100 μl of medium in 96-hole plates (Greiner #655948 poly-D-lysine-coated). For induction of the TRPM8 receptor, tetracycline is added to the growth medium (DMEM/HG, 10% FCS tetracycline-free, 4 mM L-glutamine, 15 μg/mL blasticidin, 100 μg/mL hygromycin B, 1 μg/mL tetracycline). The next day, the cells are laden with Fluo-4AM dye and the test is conducted.
# The test substances are used in the assay in triplicates in concentrations of 0.1-200 μM. Normally, the compounds are kept in DMSO solutions and diluted down for the assay to a maximum DMSO concentration of 2%.
# [1] = tested on: oral cavity of trained panelists; assay: Time-intensity profile of cooling after 40 s mouth rinse with sample solution; assay type: in vivo, human; details: for Cooling intensity: 40 s mouth rinse; for Onset of cooling activity: time-intensity profile, with respect to WS3
# Description: To establish a time-intensity profile, the oral cavity of trained panelists (n=8 to 11) was rinsed for 40 seconds with a mouthful of a sample solution (2 ppm of FEMA 4809 or 50 ppm of FEMA 4496 or 50 ppm of 1) to 5)). Subsequently, the cooling intensity perceived was assessed at defined time intervals using a scale.
# trained panelists = assay: Sensory assessment: cooling intensity of inventive amides in 5% sugar solution compared to FEMA 4809; assay type: in vivo, human; details: scale 1 (very weak) to 9 (very strong), n=10 to 11
# Description: […] What were assessed here were initial cooling intensity, overall cooling intensity and long-lasting action on a scale from 1 (very weak) to 9 (very strong).
# [2] = time 0 sec; 2 ppm FEMA 4809, 50 ppm FEMA 4496, 50 ppm 1) to 5)
# [3] = time 40 sec; 2 ppm FEMA 4809, 50 ppm FEMA 4496, 50 ppm 1) to 5)
# [4] = time 70 sec; 2 ppm FEMA 4809, 50 ppm FEMA 4496, 50 ppm 1) to 5)
# [5] = time 100 sec; 2 ppm FEMA 4809, 50 ppm FEMA 4496, 50 ppm 1) to 5)
# [6] = time 130 sec; 2 ppm FEMA 4809, 50 ppm FEMA 4496, 50 ppm 1) to 5)
# [7] = time 160 sec; 2 ppm FEMA 4809, 50 ppm FEMA 4496, 50 ppm 1) to 5)
# [8] = time 190 sec; 2 ppm FEMA 4809, 50 ppm FEMA 4496, 50 ppm 1) to 5)
# [9] = time 220 sec; 2 ppm FEMA 4809, 50 ppm FEMA 4496, 50 ppm 1) to 5)
# [10] = time 250 sec; 2 ppm FEMA 4809, 50 ppm FEMA 4496, 50 ppm 1) to 5)
# [11] = time 280 sec; 2 ppm FEMA 4809, 50 ppm FEMA 4496, 50 ppm 1) to 5)
# [12] = time 310 sec; 2 ppm FEMA 4809, 50 ppm FEMA 4496, 50 ppm 1) to 5)
# [13] = time 340 sec; 2 ppm FEMA 4809, 50 ppm FEMA 4496, 50 ppm 1) to 5)
# [14] = time 640 sec; 2 ppm FEMA 4809, 50 ppm FEMA 4496, 50 ppm 1) to 5)
# [15] = time 940 sec; 2 ppm FEMA 4809, 50 ppm FEMA 4496, 50 ppm 1) to 5)
# [16] = time 1240 sec; 2 ppm FEMA 4809, 50 ppm FEMA 4496, 50 ppm 1) to 5)
# T1 sequence (Q7Z2W7 whole entry): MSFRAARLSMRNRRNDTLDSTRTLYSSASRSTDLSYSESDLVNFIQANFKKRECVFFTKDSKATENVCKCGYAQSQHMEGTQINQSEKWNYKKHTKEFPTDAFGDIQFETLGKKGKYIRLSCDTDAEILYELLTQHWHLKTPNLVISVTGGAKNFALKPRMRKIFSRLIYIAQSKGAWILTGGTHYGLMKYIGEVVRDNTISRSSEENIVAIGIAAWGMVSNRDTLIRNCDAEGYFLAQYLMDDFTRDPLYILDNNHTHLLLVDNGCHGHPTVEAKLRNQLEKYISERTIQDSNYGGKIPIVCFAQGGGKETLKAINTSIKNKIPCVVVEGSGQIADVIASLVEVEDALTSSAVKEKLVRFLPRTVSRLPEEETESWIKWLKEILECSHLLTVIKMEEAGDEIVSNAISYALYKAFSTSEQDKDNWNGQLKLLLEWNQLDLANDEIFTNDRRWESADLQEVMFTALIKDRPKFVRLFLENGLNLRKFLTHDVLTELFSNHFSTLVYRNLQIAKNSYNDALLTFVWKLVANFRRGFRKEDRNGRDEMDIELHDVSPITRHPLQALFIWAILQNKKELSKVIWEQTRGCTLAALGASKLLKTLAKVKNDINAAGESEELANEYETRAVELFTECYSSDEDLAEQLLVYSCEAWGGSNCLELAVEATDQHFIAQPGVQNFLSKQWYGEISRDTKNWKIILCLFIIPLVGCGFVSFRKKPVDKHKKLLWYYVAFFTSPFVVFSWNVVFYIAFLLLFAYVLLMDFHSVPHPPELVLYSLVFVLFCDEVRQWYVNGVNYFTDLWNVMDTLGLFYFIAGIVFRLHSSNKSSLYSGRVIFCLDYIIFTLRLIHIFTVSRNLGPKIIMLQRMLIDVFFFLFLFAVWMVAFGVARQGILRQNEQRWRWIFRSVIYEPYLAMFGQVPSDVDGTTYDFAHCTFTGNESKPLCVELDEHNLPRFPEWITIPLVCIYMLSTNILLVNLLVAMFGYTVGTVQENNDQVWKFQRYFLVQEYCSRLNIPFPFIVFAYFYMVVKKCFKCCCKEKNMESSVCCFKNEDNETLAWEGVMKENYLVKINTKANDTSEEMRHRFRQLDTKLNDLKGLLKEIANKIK
smiles,measurement,setting,value
COc1ccc(OCC(=O)N(c2cc[nH]n2)C2CCSC2)cc1 (stereo not shown) [2-(4-methoxyphenoxy)-N-(1H-pyrazol-3-yl)-N-tetrahydrothiophen-3-yl-acetamide],pEC50,human TRPM8 receptor,5.00
COc1ccc(OCC(=O)N(CCSC)c2ccccc2)cc1 [2-(4-methoxyphenoxy)-N-(2-methylsulfanylethyl)-N-phenyl-acetamide],pEC50,human TRPM8 receptor,4.52
Cc1ccc(OCC(=O)N(CC2CCCO2)c2cc[nH]n2)cc1 (stereo not shown) [2-(4-methylphenoxy)-N-(1H-pyrazol-3-yl)-N-(tetrahydrofuran-2-ylmethyl)acetamide],pEC50,human TRPM8 receptor,5.00
Cc1ccc(OCC(=O)N(c2ccccc2)C2CCOC2)cc1 (stereo not shown) [2-(4-methylphenoxy)-N-phenyl-N-tetrahydrofuran-3-yl-acetamide],pEC50,human TRPM8 receptor,4.60
Cc1ccc(OCC(=O)N(c2ccccc2)C2CCSC2)cc1 (stereo not shown) [2-(4-methylphenoxy)-N-phenyl-N-tetrahydrothiophen-3-yl-acetamide],pEC50,human TRPM8 receptor,4.90
"Cc1ccc(/C=C/C(=O)N(c2ccccn2)C2CCSC2)cc1 (stereo not shown) [3), (E)-3-(p-tolyl)-N-(2-pyridyl)-N-tetrahydrothiophen-3-ylprop-2-enamide]",Cooling intensity,[1]; [2],0.0
same,Cooling intensity,[1]; [3],4.0
same,Cooling intensity,[1]; [4],4.0
same,Cooling intensity,[1]; [5],4.0
same,Cooling intensity,[1]; [6],3.9
same,Cooling intensity,[1]; [7],3.7
same,Cooling intensity,[1]; [8],3.7
same,Cooling intensity,[1]; [9],3.5
same,Cooling intensity,[1]; [10],3.4
same,Cooling intensity,[1]; [11],3.3
same,Cooling intensity,[1]; [12],3.2
same,Cooling intensity,[1]; [13],3.2
same,Cooling intensity,[1]; [14],2.2
same,Cooling intensity,[1]; [15],1.3
same,Cooling intensity,[1]; [16],0.7
"CSCCN(C(=O)/C=C/c1ccc2c(c1)OCO2)c1ccccn1 [5), (E)-3-(1,3-benzodioxol-5-yl)-N-(2-methylsulfanylethyl)-N-(2-pyridyl)prop-2-enamide]",Cooling intensity,[1]; [2],0.0
same,Cooling intensity,[1]; [3],5.7
same,Cooling intensity,[1]; [4],6.2
same,Cooling intensity,[1]; [5],6.0
same,Cooling intensity,[1]; [6],5.6
same,Cooling intensity,[1]; [7],5.6
same,Cooling intensity,[1]; [8],5.2
same,Cooling intensity,[1]; [9],5.0
same,Cooling intensity,[1]; [10],4.9
same,Cooling intensity,[1]; [11],4.6
same,Cooling intensity,[1]; [12],4.5
same,Cooling intensity,[1]; [13],4.3
same,Cooling intensity,[1]; [14],3.1
same,Cooling intensity,[1]; [15],1.9
same,Cooling intensity,[1]; [16],1.1
"O=C(/C=C/c1ccc2c(c1)OCO2)N(CC1CCCO1)c1cc[nH]n1 (stereo not shown) [(E)-3-(1,3-benzodioxol-5-yl)-N-(1H-pyrazol-3-yl)-N-(tetrahydrofuran-2-ylmethyl)prop-2-enamide]",pEC50,human TRPM8 receptor,4.82
"O=C(/C=C/c1ccc2c(c1)OCO2)N(CC1CCCS1)c1cc[nH]n1 (stereo not shown) [(E)-3-(1,3-benzodioxol-5-yl)-N-(1H-pyrazol-3-yl)-N-(tetrahydrothiophen-2-ylmethyl)prop-2-enamide]",pEC50,human TRPM8 receptor,5.30
"CSCCN(C(=O)/C=C/c1ccc2c(c1)OCO2)c1cc[nH]n1 [(E)-3-(1,3-benzodioxol-5-yl)-N-(2-methylsulfanylethyl)-N-(1H-pyrazol-3-yl)prop-2-enamide]",Initial cooling effect,trained panelists; 5 ppm in 5% sugar solution,3.1
same,Long-lasting action,trained panelists; 5 ppm in 5% sugar solution,4.6
same,Overall cooling intensity,trained panelists; 5 ppm in 5% sugar solution,4.8
same,Initial cooling effect,trained panelists; 20 ppm in 5% sugar solution,3.7
same,Long-lasting action,trained panelists; 20 ppm in 5% sugar solution,6.6
same,Overall cooling intensity,trained panelists; 20 ppm in 5% sugar solution,6.6
"CSCCN(C(=O)/C=C/c1ccc2c(c1)OCO2)c1ccccn1 [(E)-3-(1,3-benzodioxol-5-yl)-N-(2-methylsulfanylethyl)-N-(2-pyridyl)prop-2-enamide]",Initial cooling effect,trained panelists; 2 ppm in 5% sugar solution,3.4
same,Long-lasting action,trained panelists; 2 ppm in 5% sugar solution,4.3
same,Overall cooling intensity,trained panelists; 2 ppm in 5% sugar solution,4.6
same,Initial cooling effect,trained panelists; 20 ppm in 5% sugar solution,6.2
same,Long-lasting action,trained panelists; 20 ppm in 5% sugar solution,7.5
same,Overall cooling intensity,trained panelists; 20 ppm in 5% sugar solution,7.8
"CSCCN(C(=O)/C=C/c1ccc2c(c1)OCO2)c1ccccc1 [(E)-3-(1,3-benzodioxol-5-yl)-N-(2-methylsulfanylethyl)-N-phenyl-prop-2-enamide]",Initial cooling effect,trained panelists; 20 ppm in 5% sugar solution,2.7
same,Long-lasting action,trained panelists; 20 ppm in 5% sugar solution,4.7
same,Overall cooling intensity,trained panelists; 20 ppm in 5% sugar solution,4.7
"CCN(CCCSC)C(=O)/C=C/c1ccc2c(c1)OCO2 [(E)-3-(1,3-benzodioxol-5-yl)-N-ethyl-N-(3-methylsulfanylpropyl)prop-2-enamide]",pEC50,human TRPM8 receptor,4.52
COc1ccc(/C=C/C(=O)N(CC2CCCO2)c2cc[nH]n2)cc1 (stereo not shown) [(E)-3-(4-methoxyphenyl)-N-(1H-pyrazol-3-yl)-N-(tetrahydrofuran-2-ylmethyl)prop-2-enamide],pEC50,human TRPM8 receptor,4.60
COc1ccc(/C=C/C(=O)N(CCSC)c2ccccc2)cc1 [(E)-3-(4-methoxyphenyl)-N-(2-methylsulfanylethyl)-N-phenyl-prop-2-enamide],pEC50,human TRPM8 receptor,4.60
COc1ccc(/C=C/C(=O)N(CC2CCCO2)c2ccccc2)cc1 (stereo not shown) [(E)-3-(4-methoxyphenyl)-N-phenyl-N-(tetrahydrofuran-2-ylmethyl)prop-2-enamide],pEC50,human TRPM8 receptor,4.60
CSCCN(C(=O)/C=C/c1ccc(C)cc1)c1ccccn1 [(E)-N-(2-methylsulfanylethyl)-3-(p-tolyl)-N-(2-pyridyl)prop-2-enamide],Initial cooling effect,trained panelists; 20 ppm in 5% sugar solution,4
same,Long-lasting action,trained panelists; 20 ppm in 5% sugar solution,5.3
same,Overall cooling intensity,trained panelists; 20 ppm in 5% sugar solution,5.7
Cc1ccc(/C=C/C(=O)N(c2ccccc2)C2CCOC2)cc1 (stereo not shown) [(E)-N-phenyl-3-(p-tolyl)-N-tetrahydrofuran-3-ylprop-2-enamide],Initial cooling effect,trained panelists; 20 ppm in 5% sugar solution,4.3
same,Long-lasting action,trained panelists; 20 ppm in 5% sugar solution,6.1
same,Overall cooling intensity,trained panelists; 20 ppm in 5% sugar solution,5.7
CC1CCC(C(C)C)C(C(=O)Nc2ccc(CC#N)cc2)C1 (stereo not shown) [FEMA 4496],Cooling intensity,[1]; [2],0
same,Cooling intensity,[1]; [3],1.9
same,Cooling intensity,[1]; [4],2.3
same,Cooling intensity,[1]; [5],2.4
same,Cooling intensity,[1]; [6],2.3
same,Cooling intensity,[1]; [7],2.3
same,Cooling intensity,[1]; [8],2.3
same,Cooling intensity,[1]; [9],2.2
same,Cooling intensity,[1]; [10],2.2
same,Cooling intensity,[1]; [11],2.2
same,Cooling intensity,[1]; [12],2.1
same,Cooling intensity,[1]; [13],2.1
same,Cooling intensity,[1]; [14],2.0
same,Cooling intensity,[1]; [15],1.5
same,Cooling intensity,[1]; [16],1.2
same,Onset of cooling activity,[1],distinctly retarded onset of the cooling action
Cc1ccc(OCC(=O)N(Cc2cccs2)c2ccn[nH]2)cc1 [FEMA 4809],Cooling intensity,[1]; [2],0
same,Cooling intensity,[1]; [3],2.7
same,Cooling intensity,[1]; [4],2.8
same,Cooling intensity,[1]; [5],2.5
same,Cooling intensity,[1]; [6],2.6
same,Cooling intensity,[1]; [7],2.6
same,Cooling intensity,[1]; [8],2.7
same,Cooling intensity,[1]; [9],2.8
same,Cooling intensity,[1]; [10],2.7
same,Cooling intensity,[1]; [11],2.8
same,Cooling intensity,[1]; [12],2.9
same,Cooling intensity,[1]; [13],2.8
same,Cooling intensity,[1]; [14],2.6
same,Cooling intensity,[1]; [15],2.6
same,Cooling intensity,[1]; [16],2.1
same,Onset of cooling activity,[1],distinctly retarded onset of the cooling action
same,Initial cooling effect,trained panelists; 2 ppm in 5% sugar solution,3.9
same,Long-lasting action,trained panelists; 2 ppm in 5% sugar solution,7.5
same,Overall cooling intensity,trained panelists; 2 ppm in 5% sugar solution,7.3
"CCNC(=O)C1CC(C)CCC1C(C)C (stereo not shown) [WS3, N-ethylmenthane-3-carboxamide]",Cooling intensity,[1]; [2],0
same,Cooling intensity,[1]; [3],4.3
same,Cooling intensity,[1]; [4],4.3
same,Cooling intensity,[1]; [5],4.1
same,Cooling intensity,[1]; [6],3.7
same,Cooling intensity,[1]; [7],3.4
same,Cooling intensity,[1]; [8],3.1
same,Cooling intensity,[1]; [9],2.9
same,Cooling intensity,[1]; [10],2.8
same,Cooling intensity,[1]; [11],2.4
same,Cooling intensity,[1]; [12],2.3
same,Cooling intensity,[1]; [13],2.1
same,Cooling intensity,[1]; [14],1.2
same,Cooling intensity,[1]; [15],0.5
same,Cooling intensity,[1]; [16],0.3
